Results reported in patent publication US12624044B2, “SMARCA degraders and uses thereof” (Kymera Therapeutics, Inc., priority 2019, dated 2026).

Key:
SMARCA2 [1] = biological target: T1, SMARCA2 (Homo sapiens, UniProt P51531); assay: MSD SMARCA2 degradation in A549 cell line; format: cell-based; conditions: 24 h; for Dmax: A549, A549 cells; for DC50: A549 cells, read-out: SMARCA2 MSD A549 degradation 24 h: Average external-Abs DC50
Procedure, shortened: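 SMARCA2 remaining was measured by MSD electrochemiluminescence on RIPA lysates (anti-SMARCA2 plus SULFO-TAG anti-rabbit). Prior exposure: 24 h of A549 cells to a 10-point, 3-fold dilution series topping at 1000 nM final; Dmax % given as graded codes.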

SMARCA2 [2] = biological target: T1, SMARCA2; assay: MSD SMARCA2 degradation in NCI-H1299 cell line (24 h); format: cell-based; design: HC: NCI-H1299 cells treated with DMSO; host or cells: NCI-H1299; conditions: for DC50: read-out: SMARCA2 MSD H1299 degradation 24 h: External Abs-DC50; for Dmax: NCI-H1299, NCI-H1299 cells
Procedure, shortened: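 SMARCA2 measured by MSD electrochemiluminescence (primary 0.3 ug/ml, secondary 1 ug/ml) on lysates from NCI-H1299 cells exposed to compounds for 24 h across nine 3-fold dilutions. Signal scaled from A2780 cells (no SMARCA2) to DMSO-treated H1299 controls, and maximal degradation after 24 h reported in letter categories.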

T1 sequence (P51531 whole entry): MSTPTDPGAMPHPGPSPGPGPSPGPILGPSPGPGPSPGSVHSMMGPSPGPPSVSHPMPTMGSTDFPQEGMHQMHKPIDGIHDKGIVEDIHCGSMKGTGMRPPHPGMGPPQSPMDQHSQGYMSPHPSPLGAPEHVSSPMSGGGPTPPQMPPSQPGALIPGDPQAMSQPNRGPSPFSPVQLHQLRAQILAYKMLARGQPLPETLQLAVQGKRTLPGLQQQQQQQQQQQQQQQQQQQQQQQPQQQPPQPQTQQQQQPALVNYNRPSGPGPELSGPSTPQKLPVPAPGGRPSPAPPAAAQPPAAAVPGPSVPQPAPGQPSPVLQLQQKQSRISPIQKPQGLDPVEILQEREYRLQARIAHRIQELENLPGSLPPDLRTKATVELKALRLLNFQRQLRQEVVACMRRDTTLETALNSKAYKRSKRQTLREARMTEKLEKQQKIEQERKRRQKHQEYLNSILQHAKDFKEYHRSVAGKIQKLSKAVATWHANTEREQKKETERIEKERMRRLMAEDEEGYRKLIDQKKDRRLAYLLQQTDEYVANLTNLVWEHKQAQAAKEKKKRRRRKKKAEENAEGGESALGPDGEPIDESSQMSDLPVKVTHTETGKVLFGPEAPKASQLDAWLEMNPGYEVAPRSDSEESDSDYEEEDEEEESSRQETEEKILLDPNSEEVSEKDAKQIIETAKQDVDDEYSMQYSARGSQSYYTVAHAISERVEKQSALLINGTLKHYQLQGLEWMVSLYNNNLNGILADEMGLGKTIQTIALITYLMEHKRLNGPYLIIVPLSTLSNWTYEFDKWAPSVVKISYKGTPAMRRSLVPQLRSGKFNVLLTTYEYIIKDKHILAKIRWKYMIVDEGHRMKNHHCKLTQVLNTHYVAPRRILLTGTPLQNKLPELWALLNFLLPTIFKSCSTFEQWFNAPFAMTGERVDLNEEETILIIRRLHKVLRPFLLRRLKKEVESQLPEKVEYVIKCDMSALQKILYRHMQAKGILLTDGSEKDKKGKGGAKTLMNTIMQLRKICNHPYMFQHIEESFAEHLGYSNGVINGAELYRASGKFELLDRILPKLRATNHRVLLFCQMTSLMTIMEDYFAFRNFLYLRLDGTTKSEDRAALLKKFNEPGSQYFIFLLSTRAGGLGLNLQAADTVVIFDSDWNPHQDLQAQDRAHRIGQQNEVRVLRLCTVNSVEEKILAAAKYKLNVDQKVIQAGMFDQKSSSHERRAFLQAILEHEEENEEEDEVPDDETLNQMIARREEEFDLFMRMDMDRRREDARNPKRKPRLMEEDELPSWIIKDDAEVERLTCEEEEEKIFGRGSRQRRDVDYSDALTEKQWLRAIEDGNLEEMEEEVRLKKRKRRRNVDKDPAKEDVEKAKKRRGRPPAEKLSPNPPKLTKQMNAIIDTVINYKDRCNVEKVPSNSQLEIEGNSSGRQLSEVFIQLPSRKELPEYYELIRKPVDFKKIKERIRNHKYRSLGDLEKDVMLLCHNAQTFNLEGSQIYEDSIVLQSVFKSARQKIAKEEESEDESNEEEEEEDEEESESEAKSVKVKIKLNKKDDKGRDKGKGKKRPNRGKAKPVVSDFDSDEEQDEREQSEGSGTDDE

| SMARCA2 MSD H1299 degradation 24 h: Dmax % (SMARCA2 [2]; NCI-H1299 cells) | SMILES | Dmax (SMARCA2 [1]) [%] | DC50 (SMARCA2 [1]) [nM] | DC50 (SMARCA2 [2]; NCI-H1299 cells) [nM] | Dmax (SMARCA2 [2]) [%] |
| --- | --- | --- | --- | --- | --- |
| A (A (>90% degradation)) | Cc1ncsc1-c1ccc(CNC(=O)[C@@H]2C[C@@H](O)CN2C(=O)[C@@H](NC(=O)[C@H]2CC3(C2)C[C@H](N2CCC(n4cc(-c5cc(-c6ccccc6O)nnc5N)cn4)CC2)C3)C(C)(C)C)cc1 (some centres unmarked) [I-389] | > 90 | 100 to 500 | 100 to 500 | – |
| – | Cn1c(=O)n(C2CCC(=O)NC2=O)c2ccc(CCCCCCCc3nccc(N4C5CCC4CN(c4cc(-c6ccccc6O)nnc4N)C5)n3)cc21 (centres unmarked) [I-287, 3-(5-(7-(4-(3-(3-amino-6-(2-hydroxyphenyl)pyridazin-4-yl)-3,8-diazabicyclo[3.2.1]octan-8-yl)pyrimidin-2-yl)heptyl)-3-methyl-2-oxo-2,3-dihydro-1H-benzo[d]imidazol-1-yl)piperidine-2,6-dione] | 70 to 90 | 100 to 500 | 100 to 500 | > 90 |
| – | Cc1ncsc1-c1ccc(CNC(=O)[C@@H]2C[C@@H](O)CN2C(=O)[C@@H](NC(=O)[C@H]2CC[C@H](CN3CCC(n4cc(-c5cc(-c6ccccc6O)nnc5N)cn4)CC3)CC2)C(C)(C)C)cc1 [I-403] | > 90 | 100 to 500 | 100 to 500 | > 90 |
| – | Cc1ncsc1-c1ccc(CNC(=O)[C@@H]2C[C@@H](O)CN2C(=O)[C@@H](NC(=O)[C@H]2CC[C@@H](c3cnc(N4C5CCC4CN(c4cc(-c6ccccc6O)nnc4N)C5)nc3)CC2)C(C)(C)C)cc1 [I-336] | > 90 | 100 to 500 | < 100 | – |
| – | Cc1ncsc1-c1ccc(CNC(=O)[C@@H]2C[C@@H](O)CN2C(=O)[C@@H](NC(=O)[C@H]2CC[C@H](c3cnc(N4C5CCC4CN(c4cc(-c6ccccc6O)nnc4N)C5)nc3)CC2)C(C)(C)C)cc1 [I-337, (2S,4R)-1-((2S)-2-((1r,4S)-4-(2-(3-(3-amino-6-(2-hydroxyphenyl)pyridazin-4-yl)-3,8-diazabicyclo[3.2.1]octan-8-yl)pyrimidin-5-yl)cyclohexanecarboxamido)-3,3-dimethylbutanoyl)-4-hydroxy-N-(4-(4-methylthiazol-5-yl)benzyl)pyrrolidine-2-carboxamide] | > 90 | < 100 | < 100 | > 90 |
| – | Cc1ncsc1-c1ccc(CNC(=O)[C@@H]2C[C@@H](O)CN2C(=O)[C@@H](NC(=O)[C@H]2CC[C@@H](CN3CCC(n4cc(-c5cc(-c6ccccc6O)nnc5N)cn4)CC3)CC2)C(C)(C)C)cc1 [I-402] | 70 to 90 | 100 to 500 | 100 to 500 | 70 to 90 |
